# Measurements: patent US9677045B2, “Microorganisms and methods for production of 4-hydroxybutyrate, 1,4-butanediol and related compounds” (priority 2012, dated 2017)
# B1: 0026: Gene ID 0026: bdhA, Clostridium acetobutylicum ATCC 824, Butanol dehydrogenase (protein, UniProt Q04944 1-389, looked up)
# NADH-dependent butanol …: MLSFDYSIPTKVFFGKGKIDVIGEEIKKYGSRVLIVYGGGSIKRNGIYDRATAILKENNIAFYELSGVEPNPRITTVKKGIEICRENNVDLVLAIGGGSAIDCSKVIAAGVYYDGDTWDMVKDPSKITKVLPIASILTLSATGSEMDQIAVISNMETNEKLGVGHDDMRPKFSVLDPTYTFTVPKNQTAAGTADIMSHTFESYFSGVEGAYVQDGIAEAILRTCIKYGKIAMEKTDDYEARANLMWASSLAINGLLSLGKDRKWSCHPMEHELSAYYDITHGVGLAILTPNWMEYILNDDTLHKFVSYGINVWGIDKNKDNYEIAREAIKNTREYFNSLGIPSKLREVGIGKDKLELMAKQAVRNSGGTIGSLRPINAEDVLEIFKKSY
# B2: 0013: Gene ID 0013: bdhB, Clostridium acetobutylicum ATCC 824, Butanol dehydrogenase II (protein, UniProt Q04945 1-390, looked up)
# NADH-dependent butanol …: MVDFEYSIPTRIFFGKDKINVLGRELKKYGSKVLIVYGGGSIKRNGIYDKAVSILEKNSIKFYELAGVEPNPRVTTVEKGVKICRENGVEVVLAIGGGSAIDCAKVIAAACEYDGNPWDIVLDGSKIKRVLPIASILTIAATGSEMDTWAVINNMDTNEKLIAAHPDMAPKFSILDPTYTYTVPTNQTAAGTADIMSHIFEVYFSNTKTAYLQDRMAEALLRTCIKYGGIALEKPDDYEARANLMWASSLAINGLLTYGKDTNWSVHLMEHELSAYYDITHGVGLAILTPNWMEYILNNDTVYKFVEYGVNVWGIDKEKNHYDIAHQAIQKTRDYFVNVLGLPSRLRDVGIEEEKLDIMAKESVKLTGGTIGNLRPVNASEVLQIFKKSV
# B3: 0034: Gene ID 0034: cat2, Porphyromonas gingivalis W83, 4-hydroxybutyrate coenzyme A transferase (protein, listed as Porphyromonas gingivalis)
# chain: MKDVLAEYASRIVSAEEAVKHIKNGERVALSHAAGVPQSCVDALVQQADLFQNVEIYHMLCLGEGKYMAPEMAPHFRHITNFVGGNSRKAVEENRADFIPVFFYEVPSMIRKDILHIDVAIVQLSMPDENGYCSFGVSCDYSKPAAESAHLVIGEINRQMPYVHGDNLIHISKLDYIVMADYPIYSLAKPKIGEVEEAIGRNCAELIEDGATLQLGIGAIPDAALLFLKDKKDLGIHTEMFSDGVVELVRSGVITGKKKTLHPGKMVATFLMGSEDVYHFIDKNPDVELYPVDYVNDPRVIAQNDNMVSINSCIEIDLMGQVVSECIGSKQFSGTGGQVDYVRGAAWSKNGKSIMAIPSTAKNGTASRIVPIIAEGAAVTTLRNEVDYVVTEYGIAQLKGKSLRQRAEALIAIAHPDFREELTKHLRKRFG
# B4: 0002: Gene ID 0002: adhE, Clostridium acetobutylicum ATCC 824, Aldehyde/alcohol dehydrogenase (protein, UniProt P33744 1-862, looked up)
# Aldehyde-alcohol dehydrogenase: MKVTTVKELDEKLKVIKEAQKKFSCYSQEMVDEIFRNAAMAAIDARIELAKAAVLETGMGLVEDKVIKNHFAGEYIYNKYKDEKTCGIIERNEPYGITKIAEPIGVVAAIIPVTNPTSTTIFKSLISLKTRNGIFFSPHPRAKKSTILAAKTILDAAVKSGAPENIIGWIDEPSIELTQYLMQKADITLATGGPSLVKSAYSSGKPAIGVGPGNTPVIIDESAHIKMAVSSIILSKTYDNGVICASEQSVIVLKSIYNKVKDEFQERGAYIIKKNELDKVREVIFKDGSVNPKIVGQSAYTIAAMAGIKVPKTTRILIGEVTSLGEEEPFAHEKLSPVLAMYEADNFDDALKKAVTLINLGGLGHTSGIYADEIKARDKIDRFSSAMKTVRTFVNIPTSQGASGDLYNFRIPPSFTLGCGFWGGNSVSENVGPKHLLNIKTVAERRENMLWFRVPHKVYFKFGCLQFALKDLKDLKKKRAFIVTDSDPYNLNYVDSIIKILEHLDIDFKVFNKVGREADLKTIKKATEEMSSFMPDTIIALGGTPEMSSAKLMWVLYEHPEVKFEDLAIKFMDIRKRIYTFPKLGKKAMLVAITTSAGSGSEVTPFALVTDNNTGNKYMLADYEMTPNMAIVDAELMMKMPKGLTAYSGIDALVNSIEAYTSVYASEYTNGLALEAIRLIFKYLPEAYKNGRTNEKAREKMAHASTMAGMASANAFLGLCHSMAIKLSSEHNIPSGIANALLIEEVIKFNAVDNPVKQAPCPQYKYPNTIFRYARIADYIKLGGNTDEEKVDLLINKIHELKKALNIPTSIKDAGVLEENFYSSLDRISELALDDQCTGANPRFPLTSEIKEMYINCFKKQP
# How the values were obtained:
# homoserine kinase = homoserine kinase (Escherichia coli, UniProt P00547); conditions: cited from earlier work; for % kcat: relative to L-homoserine
# [1] = test system: aminotransferase from Leishmania mexicana; conditions: activity considered 100% on tyrosine; enzyme expressed in E. coli; cited from earlier work
# Aldehyde dehydrogenase = Aldehyde dehydrogenase (ALD) assay in the reductive direction, cell extracts; conditions: extracts of MG1655 lacI^Q with pZA33
# Protocol: (§1) In Vitro Enzyme Assays. To obtain crude extracts for activity assays, cells were harvested by centrifugation at 4,500 rpm (Beckman-Coulter, Allegera X-15R) for 10 min. The pellets were resuspended in 0.3 mL BugBuster (Novagen) reagent with benzonase and lysozyme, and lysis proceeded for 15 minutes at room temperature with gentle shaking. Cell-free lysate was obtained by centrifugation at 14,000 rpm (Eppendorf centrifuge 5402) for 30 min at 4° C. Cell protein in the sample was determined using the method of Bradford et al., Anal. Biochem. 72:248-254 (1976), and specific enzyme assays conducted as described below. Activities are reported in Units/mg protein, where a unit of activity is defined as the amount of enzyme required to convert 1 mmol of substrate in 1 min. at room temperature. In general, reported values are averages of at least 3 replicate assays.
# (§2) Alcohol (ADH) and aldehyde (ALD) dehydrogenase was assayed in the reductive direction using a procedure adapted from several literature sources (Durre et al., FEMS Microbiol. Rev. 17:251-262 (1995); Palosaari and Rogers, J. Bacteriol. 170:2971-2976 (1988) and Welch et al., Arch. Biochem. Biophys. 273:309-318 (1989). The oxidation of NADH is followed by reading absorbance at 340 nm every four seconds for a total of 240 seconds at room temperature. The reductive assays were performed in 100 mM MOPS (adjusted to pH 7.5 with KOH), 0.4 mM NADH, and from 1 to 50 μl of cell extract. The reaction is started by adding the following reagents: 100 μl of 100 mM acetaldehyde or butyraldehyde for ADH, or 100 μl of 1 mM acetyl-CoA or butyryl-CoA for ALD. The Spectrophotometer is quickly blanked and then the kinetic read is started. The resulting slope of the reduction in absorbance at 340 nm per minute, along with the molar extinction coefficient of NAD(P)H at 340 nM (6000) and the protein concentration of the extract, can be used to determine the specific activity.
# (§3) Gene candidates for the 4-HB to BDO conversion pathway were next tested for activity when expressed in the E. coli host MG1655 lacI^Q. Recombinant strains containing each gene candidate expressed on pZA33 were grown in the presence of 0.25 mM IPTG for four hours at 37° C. to fully induce expression of the enzyme. Four hours after induction, cells were harvested and assayed for ADH and ALD activity as described above.
# Alcohol dehydrogenase = Alcohol dehydrogenase (ADH) assay in the reductive direction, cell extracts; conditions: extracts of MG1655 lacI^Q with pZA33
# Protocol: as §1, §2, §3
# [2] = test system: 4-HB to BDO conversion pathway; assay: Production of BDO from 10 mM 4-HB in recombinant E. coli strains
# Protocol: For the BDO production experiments, cat2 from Porphyromonas gingivalis W83 (gene 0034) was included on pZA33 for the conversion of 4-HB to 4-HB-CoA, while the candidate dehydrogenase genes were expressed on pZE13. The host strain was MG1655 lacI^Q. Along with the alcohol and aldehyde dehydrogenase candidates, we also tested the ability of CoA-dependent succinic semialdehyde dehydrogenases (sucD) to function in this step, due to the similarity of the substrates. Cells were grown to an OD of about 0.5 in LB medium supplemented with 10 mM 4-HB, induced with 1 mM IPTG, and culture broth samples taken after 24 hours and analyzed for BDO as described below.
# Finally, the construct was tested for participation in the conversion of 4-HB to BDO. Host strains were transformed with the pZA33-0020-0021 construct described and pZE13-0002, and compared to use of cat2 in BDO production using the aerobic procedure used above in FIG. 5.
# Sequence of homoserine kinase (P00547 whole entry): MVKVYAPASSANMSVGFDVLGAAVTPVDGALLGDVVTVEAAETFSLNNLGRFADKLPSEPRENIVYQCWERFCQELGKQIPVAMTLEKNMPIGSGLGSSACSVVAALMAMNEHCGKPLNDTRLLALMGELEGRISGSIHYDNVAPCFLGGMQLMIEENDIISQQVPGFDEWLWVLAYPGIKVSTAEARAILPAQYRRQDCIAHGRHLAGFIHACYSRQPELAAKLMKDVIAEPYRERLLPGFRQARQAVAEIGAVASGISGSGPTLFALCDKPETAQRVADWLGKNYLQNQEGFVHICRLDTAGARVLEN
molecule,measurement,setting,value
N[C@H](CCO)C(=O)O [D-homoserine],kcat,homoserine kinase,8.3 ± 1.1
same,% kcat,homoserine kinase,32%
CC(C)OC(=O)[C@@H](N)CCO [L-homoserine isopropyl ester],kcat,homoserine kinase,13.6 ± 1.4
same,% kcat,homoserine kinase,74%
N[C@@H](Cc1c[nH]c2ccccc12)C(=O)O [tryptophan],activity relative to tyrosine,[1],85%
CC(C)C[C@H](N)C(=O)O [leucine],activity relative to tyrosine,[1],25%
"N[C@H](CO)CCO [L-2-amino-1,4-butanediol]",kcat,homoserine kinase,2.0 ± 0.5
same,% kcat,homoserine kinase,7.9%
CCCOC(=O)[C@@H](N)CCO [L-homoserine n-propyl ester],kcat,homoserine kinase,14.0 ± 0.4
same,% kcat,homoserine kinase,76%
N[C@@H](CCO)C(=O)O [L-homoserine],kcat,homoserine kinase,18.3 ± 0.1
same,% kcat,homoserine kinase,100%
N[C@@H](CCCO)C(=O)O [L-2-amino-5-hydroxyvalerate],kcat,homoserine kinase,2.5 ± 0.4
same,% kcat,homoserine kinase,9.9%
CCOC(=O)[C@@H](N)CCO [L-homoserine ethyl ester],kcat,homoserine kinase,13.6 ± 0.8
same,% kcat,homoserine kinase,74%
N[C@@H](Cc1ccccc1)C(=O)O [phenylalanine],activity relative to tyrosine,[1],90%
COC(=O)[C@@H](N)CCO [L-homoserine methyl ester],kcat,homoserine kinase,14.7 ± 2.6
same,% kcat,homoserine kinase,80%
CCCCOC(=O)[C@@H](N)CCO [L-homserine n-butyl ester],kcat,homoserine kinase,29.1 ± 1.2
same,% kcat,homoserine kinase,160%
N[C@@H](Cc1ccc(O)cc1)C(=O)O [tyrosine],activity relative to tyrosine,[1],100%
CSCC[C@H](N)C(=O)O [methionine],activity relative to tyrosine,[1],25%
N[C@@H](CC=O)C(=O)O [L-aspartate β-semialdehyde],kcat,homoserine kinase,2.1 ± 0.1
same,% kcat,homoserine kinase,8.2%
"0011: Gene ID 0011: adhE, E. coli, Aldehyde/alcohol dehydrogenase [Sample 0011]",Aldehyde dehydrogenase activity,Aldehyde dehydrogenase; Substrate Acetyl-CoA,0.0095 μmol min^−1 mg cell protein^−1
same,Aldehyde dehydrogenase activity,Aldehyde dehydrogenase; Substrate Butyryl-CoA,0.0069 μmol min^−1 mg cell protein^−1
same,Alcohol dehydrogenase activity,Alcohol dehydrogenase; Substrate Acetaldehyde,0.0093 μmol min^−1 mg cell protein^−1
same,Alcohol dehydrogenase activity,Alcohol dehydrogenase; Substrate Butyraldehyde,0.0265 μmol min^−1 mg cell protein^−1
CC(C)COC(=O)[C@@H](N)CCO [L-homoserine isobutyl ester],kcat,homoserine kinase,16.4 ± 0.8
same,% kcat,homoserine kinase,84%
B1,Aldehyde dehydrogenase activity,Aldehyde dehydrogenase; Substrate Acetyl-CoA,0.0005 μmol min^−1 mg cell protein^−1
same,Aldehyde dehydrogenase activity,Aldehyde dehydrogenase; Substrate Butyryl-CoA,0 μmol min^−1 mg cell protein^−1
same,Alcohol dehydrogenase activity,Alcohol dehydrogenase; Substrate Acetaldehyde,0.0008 μmol min^−1 mg cell protein^−1
same,Alcohol dehydrogenase activity,Alcohol dehydrogenase; Substrate Butyraldehyde,0.0024 μmol min^−1 mg cell protein^−1
B2,Alcohol dehydrogenase activity,Alcohol dehydrogenase; Substrate Acetaldehyde,0.0142 μmol min^−1 mg cell protein^−1
same,Alcohol dehydrogenase activity,Alcohol dehydrogenase; Substrate Butyraldehyde,0.0130 μmol min^−1 mg cell protein^−1
B3,BDO/OD,[2]; Host MG1655 lacI^Q,0.042
same,BDO,"[2]; Host MG1655 lacI^Q, adhE2 in pZE13, aerobic procedure",0.827 µM
same,BDO/OD,[2]; Host MG1655 ΔadhE lacI^Q,0.166
same,BDO,"[2]; Host MG1655 ΔadhE lacI^Q, adhE2 in pZE13, aerobic procedure",2.084 µM
B4,BDO/OD,[2]; Aerobic,15.2
same,BDO,"[2]; Aerobic, 10 mM 4-HB, 24 hours, cat2 (0034) on pZA33",138.3 µM
same,BDO/OD,[2]; Anaerobic,40.5
same,BDO,"[2]; Anaerobic, 10 mM 4-HB, 24 hours, cat2 (0034) on pZA33",54.7 µM
same,BDO/OD,[2]; Microaerobic,8.73
same,BDO,"[2]; Microaerobic, 10 mM 4-HB, 24 hours, cat2 (0034) on pZA33",48.2 µM
same,Aldehyde dehydrogenase activity,Aldehyde dehydrogenase; Substrate Acetyl-CoA,0.0046 μmol min^−1 mg cell protein^−1
same,Aldehyde dehydrogenase activity,Aldehyde dehydrogenase; Substrate Butyryl-CoA,0.0076 μmol min^−1 mg cell protein^−1
same,Alcohol dehydrogenase activity,Alcohol dehydrogenase; Substrate Acetaldehyde,0.0247 μmol min^−1 mg cell protein^−1
same,Alcohol dehydrogenase activity,Alcohol dehydrogenase; Substrate Butyraldehyde,0.0264 μmol min^−1 mg cell protein^−1
